Results from patent publication US8952024B2, “Herbicidal pyrimidone derivatives” (E I du Pont de Nemours and Company, priority 2009, dated 2015).

Legend:
Assay type in all cases: in vivo
[1] = tested on: Surinam grass (Brachiaria decumbens); assay: Test B pre-/postemergence plant response; conditions: Postemergence
Procedure, shortened: (§1)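 Seeds sown in loam–sand blend were treated preemergence, and plants at 2–18 cm (1- to 4-leaf stage) in peat-based medium were treated postemergence; compounds were formulated in non-phytotoxic solvent with surfactant. After 13–15 days in greenhouse, response was visually rated against controls, 0 (no effect) to 100 (complete control).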

[2] = tested on: bermudagrass (Cynodon dactylon); assay: Test B pre-/postemergence plant response; conditions: Postemergence
Procedure, shortened: as §1

[3] = tested on: downy bromegrass (Bromus tectorum); assay: Test B pre-/postemergence plant response; conditions: Postemergence
Procedure, shortened: as §1

[4] = tested on: lambsquarters (Chenopodium album); assay: Test B pre-/postemergence plant response; conditions: Postemergence
Procedure, shortened: as §1

[5] = tested on: pigweed (Amaranthus retroflexus); assay: Test B pre-/postemergence plant response; conditions: Postemergence
Procedure, shortened: as §1

[6] = tested on: wheat (Triticum aestivum); assay: Test B pre-/postemergence plant response; conditions: Postemergence
Procedure, shortened: as §1

[7] = tested on: woolly cupgrass (Eriochloa villosa); assay: Test B pre-/postemergence plant response; conditions: Postemergence
Procedure, shortened: as §1

[8] = tested on: yellow nutsedge (Cyperus esculentus); assay: Test B pre-/postemergence plant response; conditions: Postemergence
Procedure, shortened: as §1

[9] = tested on: barnyardgrass (Echinochloa crus-galli); assay: Test B flooded paddy test; conditions: for Plant response rating, Flood, Barnyardgrass: 250 g ai/ha, flooded paddy test, visual rating on 0 to 100 scale (0 no effect, 100 complete control) after 13 to 15 days; for Plant response rating, Barnyardgrass: Flood (flooded paddy test), 13 to 15 days; for Barnyardgrass plant response rating: Flood, 31 g ai/ha, scale 0 to 100 (0 no effect, 100 complete control)
Procedure, shortened: (§2)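 Greenhouse-held for 13 to 15 days, treated pots were compared visually with controls and scored 0–100 (0, no effect). Treatment had been made into paddy water kept at 3 cm above the soil, with plants at the 2-leaf stage.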

[10] = tested on: ducksalad (Heteranthera limosa); assay: Test B flooded paddy test; conditions: for Plant response rating, Flood, Ducksalad: 250 g ai/ha, flooded paddy test, visual rating on 0 to 100 scale (0 no effect, 100 complete control) after 13 to 15 days; for Plant response rating, Ducksalad: Flood (flooded paddy test), 13 to 15 days; for Ducksalad plant response rating: Flood, 31 g ai/ha, scale 0 to 100 (0 no effect, 100 complete control)
Procedure, shortened: as §2

rice (Oryza sativa) = assay: Test B flooded paddy test; conditions: for Plant response rating, Flood, Rice: 250 g ai/ha, flooded paddy test, visual rating on 0 to 100 scale (0 no effect, 100 complete control) after 13 to 15 days; for Plant response rating, Rice: Flood (flooded paddy test), 13 to 15 days; for Rice plant response rating: Flood, 31 g ai/ha, scale 0 to 100 (0 no effect, 100 complete control)
Procedure, shortened: as §2

[11] = tested on: umbrella sedge (Cyperus difformis); assay: Test B flooded paddy test; conditions: for Plant response rating, Flood, Sedge, Umbrella: 250 g ai/ha, flooded paddy test, visual rating on 0 to 100 scale (0 no effect, 100 complete control) after 13 to 15 days; for Plant response rating, Sedge, Umbrella: Flood (flooded paddy test), 13 to 15 days; for Sedge, Umbrella plant response rating: Flood, 31 g ai/ha, scale 0 to 100 (0 no effect, 100 complete control)
Procedure, shortened: as §2

[12] = 31 g ai/ha, 0 to 100 scale (0 no effect, 100 complete control)
[13] = 62 g ai/ha, scale 0 to 100 (0 no effect, 100 complete control)
[14] = 250 g ai/ha, scale 0 to 100 (0 no effect, 100 complete control), 13 to 15 days
[15] = 125 g ai/ha, scale 0 to 100 (0 no effect, 100 complete control)
[16] = 62 g ai/ha, scale of 0 to 100 where 0 is no effect and 100 is complete control
[17] = 125 g ai/ha, scale 0 to 100, 0 is no effect, 100 is complete control
[18] = 125 g ai/ha, scale 0 (no effect) to 100 (complete control), 13 to 15 days

Compound: COCCn1c(-c2cccc(F)c2)ncc(C(=O)C2=C(O)C3CCC(C3)C2=O)c1=O (stereo not drawn) [Compound 235]
- Plant response rating, Surinam Grass [1, 12]: 80
- Plant response rating, Surinam Grass [1, 13]: 90
- Plant response rating, Surinam Grass [1, 14]: 100
- Plant response rating, Bermudagrass [2, 12]: 98
- Plant response rating, Bermudagrass [2, 13]: 98
- Plant response rating, Bermudagrass [2, 15]: 100
- Plant response rating, Bermudagrass [2, 14]: 100
- Plant response rating, Bromegrass, Downy [3, 12]: 10
- Plant response rating, Bromegrass, Downy [3, 13]: 30
- Plant response rating, Bromegrass, Downy [3, 15]: 50
- Plant response rating, Bromegrass, Downy [3, 14]: 85
- Plant response rating, Lambsquarters [4, 12]: 98
- Plant response rating, Lambsquarters [4, 13]: 100
- Plant response rating, Lambsquarters [4, 15]: 100
- Plant response rating, Lambsquarters [4, 14]: 100
- Plant response rating, Pigweed [5, 12]: 100
- Plant response rating, Pigweed [5, 13]: 100
- Plant response rating, Pigweed [5, 14]: 100
- Plant response rating, Wheat [6, 12]: 45
- Plant response rating, Wheat [6, 13]: 80
- Plant response rating, Wheat [6, 14]: 80
- Plant response rating, Cupgrass, Woolly [7, 12]: 95
- Plant response rating, Cupgrass, Woolly [7, 13]: 100
- Plant response rating, Cupgrass, Woolly [7, 15]: 100
- Plant response rating, Cupgrass, Woolly [7, 14]: 100
- Plant response rating, Nutsedge, Yellow [8, 12]: 45
- Plant response rating, Nutsedge, Yellow [8, 13]: 45
- Plant response rating, Nutsedge, Yellow [8, 15]: 55
- Plant response rating, Nutsedge, Yellow [8, 14]: 60
- Plant response rating, Flood, Barnyardgrass [9]: 75
- Plant response rating, Barnyardgrass [9, 16]: 20
- Plant response rating, Barnyardgrass [9, 17]: 50
- Barnyardgrass plant response rating [9]: 0
- Plant response rating, Flood, Ducksalad [10]: 100
- Plant response rating, Ducksalad [10, 16]: 95
- Plant response rating, Ducksalad [10, 17]: 100
- Ducksalad plant response rating [10]: 95
- Plant response rating, Flood, Rice (rice (Oryza sativa)): 55
- Plant response rating, Rice (rice (Oryza sativa); [16]): 0
- Plant response rating, Rice (rice (Oryza sativa); [17]): 45
- Rice plant response rating (rice (Oryza sativa)): 0
- Plant response rating, Flood, Sedge, Umbrella [11]: 80
- Plant response rating, Sedge, Umbrella [11, 16]: 70
- Plant response rating, Sedge, Umbrella [11, 17]: 80
- Sedge, Umbrella plant response rating [11]: 0

Compound: CCCCn1c(-c2cccc(F)c2)ncc(C(=O)C2=C(O)C3CCC(C3)C2=O)c1=O (stereo not drawn) [Compound 237]
- Plant response rating, Surinam Grass [1, 12]: 85
- Plant response rating, Surinam Grass [1, 13]: 98
- Plant response rating, Surinam Grass [1, 18]: 100
- Plant response rating, Surinam Grass [1, 14]: 100
- Plant response rating, Bermudagrass [2, 12]: 98
- Plant response rating, Bermudagrass [2, 13]: 98
- Plant response rating, Bermudagrass [2, 18]: 100
- Plant response rating, Bermudagrass [2, 14]: 100
- Plant response rating, Bromegrass, Downy [3, 12]: 30
- Plant response rating, Bromegrass, Downy [3, 13]: 45
- Plant response rating, Bromegrass, Downy [3, 18]: 90
- Plant response rating, Bromegrass, Downy [3, 14]: 95
- Plant response rating, Lambsquarters [4, 12]: 95
- Plant response rating, Lambsquarters [4, 13]: 100
- Plant response rating, Lambsquarters [4, 18]: 100
- Plant response rating, Lambsquarters [4, 14]: 100
- Plant response rating, Pigweed [5, 12]: 80
- Plant response rating, Pigweed [5, 13]: 98
- Plant response rating, Pigweed [5, 18]: 100
- Plant response rating, Pigweed [5, 14]: 100
- Plant response rating, Wheat [6, 12]: 50
- Plant response rating, Wheat [6, 13]: 70
- Plant response rating, Wheat [6, 18]: 85
- Plant response rating, Wheat [6, 14]: 85
- Plant response rating, Cupgrass, Woolly [7, 12]: 100
- Plant response rating, Cupgrass, Woolly [7, 13]: 100
- Plant response rating, Cupgrass, Woolly [7, 18]: 100
- Plant response rating, Cupgrass, Woolly [7, 14]: 100
- Plant response rating, Nutsedge, Yellow [8, 12]: 20
- Plant response rating, Nutsedge, Yellow [8, 13]: 35
- Plant response rating, Nutsedge, Yellow [8, 18]: 45
- Plant response rating, Nutsedge, Yellow [8, 14]: 45
- Plant response rating, Flood, Barnyardgrass [9]: 30
- Plant response rating, Barnyardgrass [9, 16]: 0
- Plant response rating, Barnyardgrass [9, 17]: 0
- Barnyardgrass plant response rating [9]: 0
- Plant response rating, Flood, Ducksalad [10]: 100
- Plant response rating, Ducksalad [10, 16]: 65
- Plant response rating, Ducksalad [10, 17]: 90
- Ducksalad plant response rating [10]: 0
- Plant response rating, Flood, Rice (rice (Oryza sativa)): 45
- Plant response rating, Rice (rice (Oryza sativa); [16]): 0
- Plant response rating, Rice (rice (Oryza sativa); [17]): 0
- Rice plant response rating (rice (Oryza sativa)): 0
- Plant response rating, Flood, Sedge, Umbrella [11]: 100
- Plant response rating, Sedge, Umbrella [11, 16]: 45
- Plant response rating, Sedge, Umbrella [11, 17]: 55
- Sedge, Umbrella plant response rating [11]: 0
